Results on 19 compounds are retold here after patent US12679843B2, “Pyrrolopyrimidine amines as complement inhibitors” (BioCryst Pharmaceuticals, Inc., priority 2020, dated 2026).

Usually IC50 stands for the concentration needed to halve the response being measured.

Chain of Factor D (P00746 26-253): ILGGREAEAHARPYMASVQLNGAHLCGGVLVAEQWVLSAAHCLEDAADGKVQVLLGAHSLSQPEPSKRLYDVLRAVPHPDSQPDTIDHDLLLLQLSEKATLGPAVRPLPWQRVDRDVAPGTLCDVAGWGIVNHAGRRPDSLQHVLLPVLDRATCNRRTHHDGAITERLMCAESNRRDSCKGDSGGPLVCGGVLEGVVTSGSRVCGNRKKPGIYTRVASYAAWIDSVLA

In the test the target is Factor D (Homo sapiens, UniProt P00746). The test is described as follows: Factor D esterolytic assay (Z-Lys-SBzl thioester substrate, DTNB, 405 nm). The class given is biochemical. The conditions noted are these: substrate Z-Lys-SBzl 1.29 mM, 100 mM HEPES, 500 mM NaCl, pH 7.5, 10% DMSO, tested a minimum of three times. In short, it runs like this:
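Run in pH 7.5 HEPES (100 mM) with 500 mM NaCl and 10% DMSO, with compound preincubated at room temperature or not before adding 1.29 mM Z-Lys-SBzl. Free thiol released by Factor D reacts with DTNB, and rate is followed at 405 nm minus 690 nm over 600 s. IC50 derives from rate-based inhibition, minimum three replicates.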
Consider `Nc1ncnc2c1c1ccccc1n2CC(=O)N1[C@@H]2C[C@@H]2C[C@H]1C(=O)Nc1cccc(Br)n1` [Compound 4b, (1R,3S,5R)-2-(2-(4-amino-9H-pyrimido[4,5-b]indol-9-yl)acetyl)-N-(6-bromopyridin-2-yl)-2-azabicyclo[3.1.0]hexane-3-carboxamide], for which the IC50 is below 0.1 µM.
In the case of `Nc1ncnc2c1cc1n2C(C(=O)N2[C@@H](C(=O)Nc3cccc(Br)n3)C[C@@H]3C[C@@H]32)Oc2ccccc2-1` (single isomer, unassigned) [Compound 293b], the IC50 was below 0.1 µM.
Consider `Cc1ncc(-c2cc(C)c3c(c2)c2c(N)ncnc2n3CC(=O)N2C[C@](C)(F)C[C@H]2C(=O)Nc2cccc(Br)n2)cn1` [Compound 316a, (2S,4R)-1-(2-(4-amino-8-methyl-6-(2-methylpyrimidin-5-yl)-9H-pyrimido[4,5-b]indol-9-yl)acetyl)-N-(6-bromopyridin-2-yl)-4-fluoro-4-methylpyrrolidine-2-carboxamide], for which the IC50 is below 0.1 µM.
Next, `Nc1ncnc2c1c1ccc(C(=O)O)cc1n2CC(=O)N1[C@@H]2C[C@@H]2C[C@H]1C(=O)Nc1cccc(Br)n1` [Compound 43a, 4-amino-9-(2-((1R,3S,5R)-3-((6-bromopyridin-2-yl)carbamoyl)-2-azabicyclo[3.1.0]hexan-2-yl)-2-oxoethyl)-9H-pyrimido[4,5-b]indole-7-carboxylic acid]: below 0.1 µM.
Turning to `C[C@@]12C[C@@H](C(=O)Nc3cccc(Br)n3)N(C(=O)Cn3c4cc(F)c(Br)cc4c4c(N)ncnc43)[C@@H]1C2` [Compound 390a, (1R,3S,5R)-2-(2-(4-amino-6-bromo-7-fluoro-9H-pyrimido[4,5-b]indol-9-yl)acetyl)-N-(6-bromopyridin-2-yl)-5-methyl-2-azabicyclo[3.1.0]hexane-3-carboxamide], the IC50 is below 0.1 µM.
To `Nc1ncnc2c1ccn2CC(=O)N1[C@@H]2C[C@@H]2C[C@H]1C(=O)NCc1cccc(Cl)c1F` [Compound 81a, (1R,3S,5R)-2-(2-(4-amino-7H-pyrrolo[2,3-d]pyrimidin-7-yl)acetyl)-N-(3-chloro-2-fluorobenzyl)-2-azabicyclo[3.1.0]hexane-3-carboxamide] belongs below 0.1 µM; to `Cc1ncc(-c2cc(C)c3c(c2)c2c(N)ncnc2n3CC(=O)N2C[C@H](F)C[C@H]2C(=O)Nc2cccc(Br)n2)cn1` [Compound 312a, (2S,4R)-1-(2-(4-amino-8-methyl-6-(2-methylpyrimidin-5-yl)-9H-pyrimido[4,5-b]indol-9-yl)acetyl)-N-(6-bromopyridin-2-yl)-4-fluoropyrrolidine-2-carboxamide], below 0.1 µM.
For the compound `C[C@@]12C[C@@H](C(=O)Nc3cccc(Br)n3)N(C(=O)Cn3c4ncnc(N)c4c4cccc(C(F)(F)F)c43)[C@@H]1C2` [Compound 175a, (1R,3S,5R)-2-(2-(4-amino-8-(trifluoromethyl)-9H-pyrimido[4,5-b]indol-9-yl)acetyl)-N-(6-bromopyridin-2-yl)-5-methyl-2-azabicyclo[3.1.0]hexane-3-carboxamide], the IC50 is above 1 µM.
To `Nc1ncnc2c1c(-c1ccc3[nH]ccc3c1)cn2CC(=O)N1C[C@H](F)C[C@H]1C(=O)NCc1cccc(Cl)c1F` [Compound 139b, (2S,4R)-1-(2-(4-amino-5-(1H-indol-5-yl)-7H-pyrrolo[2,3-d]pyrimidin-7-yl)acetyl)-N-(3-chloro-2-fluorobenzyl)-4-fluoropyrrolidine-2-carboxamide] belongs below 0.1 µM; to `Cc1cc(F)c(Br)nc1NC(=O)[C@@H]1C[C@@]2(C)C[C@H]2N1C(=O)Cn1c2ncnc(N)c2c2cc(C(F)(F)F)cc(C)c21` [Compound 333c, (1R,3S,5R)-2-(2-(4-amino-8-methyl-6-(trifluoromethyl)-9H-pyrimido[4,5-b]indol-9-yl)acetyl)-N-(6-bromo-5-fluoro-3-methylpyridin-2-yl)-5-methyl-2-azabicyclo[3.1.0]hexane-3-carboxamide], below 0.1 µM; to `COC(=O)c1cc(OC)c2c(c1)c1c(N)ncnc1n2CC(=O)N1[C@H](C(=O)Nc2cccc(Br)n2)C[C@@]2(C)C[C@@H]12` [Compound 241a, methyl 4-amino-9-(2-((1R,3S,5R)-3-((6-bromopyridin-2-yl)carbamoyl)-5-methyl-2-azabicyclo[3.1.0]hexan-2-yl)-2-oxoethyl)-8-methoxy-9H-pyrimido[4,5-b]indole-6-carboxylate], below 0.1 µM.
To `Nc1c(CO)cnc2c1ccn2CC(=O)N1[C@@H]2C[C@@H]2C[C@H]1C(=O)Nc1cccc(Br)n1` [Compound 157a, (1R,3S,5R)-2-(2-(4-amino-5-(hydroxymethyl)-1H-pyrrolo[2,3-b]pyridin-1-yl)acetyl)-N-(6-bromopyridin-2-yl)-2-azabicyclo[3.1.0]hexane-3-carboxamide] belongs 0.1 to 1 µM; to `Cc1ccc(Br)nc1NC(=O)[C@@H]1C[C@@]2(C)C[C@H]2N1C(=O)Cn1c2ccccc2c2c(N)ncnc21` [Compound 12a, (1R,3S,5R)-2-(2-(4-amino-9H-pyrimido[4,5-b]indol-9-yl)acetyl)-N-(6-bromo-3-methylpyridin-2-yl)-5-methyl-2-azabicyclo[3.1.0]hexane-3-carboxamide], below 0.1 µM; to `COc1ccc2c(c1)c1c(N)ncnc1n2CC(=O)N1[C@H](C(=O)Nc2cccc(Br)n2)C[C@@]2(C)C[C@@H]12` [Compound 159a, (1R,3S,5R)-2-(2-(4-amino-6-methoxy-9H-pyrimido[4,5-b]indol-9-yl)acetyl)-N-(6-bromopyridin-2-yl)-5-methyl-2-azabicyclo[3.1.0]hexane-3-carboxamide], below 0.1 µM.
Next, `C[C@@]12C[C@@H](C(=O)Nc3cccc(Br)n3)N(C(=O)Cn3c4ccc(Br)cc4c4c(N)ncnc43)[C@@H]1C2` [Compound 160a, (1R,3S,5R)-2-(2-(4-amino-6-bromo-9H-pyrimido[4,5-b]indol-9-yl)acetyl)-N-(6-bromopyridin-2-yl)-5-methyl-2-azabicyclo[3.1.0]hexane-3-carboxamide]: below 0.1 µM; `C[C@@]12C[C@@H](C(=O)Nc3cccc(Br)n3)N(C(=O)Cn3c4cnccc4c4c(N)ncnc43)[C@@H]1C2` [Compound 182a, (1R,3S,5R)-2-(2-(4-amino-9H-pyrido[4′,3′:4,5]pyrrolo[2,3-d]pyrimidin-9-yl)acetyl)-N-(6-bromopyridin-2-yl)-5-methyl-2-azabicyclo[3.1.0]hexane-3-carboxamide]: below 0.1 µM; `COc1ccc2c3c(N)ncnc3n(CC(=O)N3[C@H](C(=O)Nc4nc(Br)ccc4C)C[C@@]4(C)C[C@@H]34)c2c1` [Compound 253a, (1R,3S,5R)-2-(2-(4-amino-7-methoxy-9H-pyrimido[4,5-b]indol-9-yl)acetyl)-N-(6-bromo-3-methylpyridin-2-yl)-5-methyl-2-azabicyclo[3.1.0]hexane-3-carboxamide]: below 0.1 µM.
For `Cc1ccc(Br)nc1NC(=O)[C@@H]1C[C@@]2(C)C[C@H]2N1C(=O)Cc1ccc2c(N)ncnn12` [Compound 72a, (1R,3S,5R)-2-(2-(4-aminopyrrolo[2,1-f][1,2,4]triazin-7-yl)acetyl)-N-(6-bromo-3-methylpyridin-2-yl)-5-methyl-2-azabicyclo[3.1.0]hexane-3-carboxamide], the IC50 was 0.1 to 1 µM.
With `Nc1ncnc2c1ccn2CC(=O)N1C[C@H](F)C[C@H]1C(=O)NCc1cccc(Cl)c1F` [Compound 64a, (2S,4R)-1-(2-(4-amino-7H-pyrrolo[2,3-d]pyrimidin-7-yl)acetyl)-N-(3-chloro-2-fluorobenzyl)-4-fluoropyrrolidine-2-carboxamide], the IC50 is below 0.1 µM.
